Where two headings read alike, the source gives them in different places. Each block holds one compound with its values, some of them ahead of it.
Columns and labels:
[1] = RNA encapsulation efficiency of LNP (Ribogreen fluorescence assay); type: physicochemical
In short: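 LNP samples diluted in 1× TE buffer with 0.2% Triton X-100 (total RNA) or without it (free RNA), stained with RiboGreen for ~10 min at room temperature in the dark, read at ex 488/em 525 nm against RNA standard curves. Encapsulation efficiency = (Total RNA − Free RNA)/Total RNA.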

[2] = tested on: TTR; assay: Transthyretin (TTR) ELISA analysis of mouse serum after LNP dosing; type: in vivo; details: for response vs control in vivo at 0.1 mg/kg / response vs control in vivo at 0.03 mg/kg: read-out: Serum TTR % TSS
In short: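 Female CD-1 mice aged 6-10 weeks were grouped by body weight and given LNPs by lateral tail vein injection (0.2 mL per animal, about 10 mL per kilogram). Mice were bled by cardiac puncture under isoflurane into serum separator tubes. Serum was diluted 10,000-fold for the 0.1 mpk dose, and total TTR was quantified with a Mouse Prealbumin (Transthyretin) ELISA Kit following the kit directions.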

[3] = pKa measurement of unformulated amine lipid (fluorescence, method of Jayaraman et al.); type: physicochemical; details: 100 μM in 0.1 M phosphate buffer pH 4.5-9.0
Method: The pKa of each amine lipid was determined according to the method in Jayaraman, et al. (Angewandte Chemie, 2012) with the following adaptations. […] Lipid was diluted to 100 μM in 0.1 M phosphate buffer (Boston Bioproducts) where the pH ranged from 4.5-9.0. Fluorescence intensity was measured using excitation and emission wavelengths of 321 nm and 448 nm.

[4] = tested on: B2M; assay: B2M editing in mouse liver by NGS after i.v. LNP delivery of Cas9 mRNA and sgRNA; type: in vivo; details: for Editing (%) B2M liver: 6 days post-dose; for Editing (%) B2M liver / % Editing B2M in mouse liver: G650 1:1; for % Editing B2M in mouse liver: 7 days post-dose
Method: Preparations of various LNP compositions were prepared with amine lipids. In assays for percent liver editing in mice, Cas9 mRNA and chemically modified sgRNA were formulated in LNPs, at either a 1:1 w/w ratio or a 1:2 w/w ratio. LNPs are formulated with a composition of a given ionizable lipid (e.g. an amine lipid), DSPC, cholesterol, and PEG-2k-DMG, with a 6.0 N:P ratio.
LNPs were administered to mice by a single dose at 0.1 mg/kg, unless otherwise noted and genomic DNA was isolated for NGS analysis as described below.
CD-1 female mice, ranging from 6-10 weeks of age were used in each study. Animals were weighed and grouped according to body weight for preparing dosing solutions based on group average weight. LNPs were dosed via the lateral tail vein in a volume of 0.2 mL per animal (approximately 10 mL per kilogram body weight). The animals were periodically observed post dose for adverse effects for at least 24 hours post dose. Animals were euthanized at 6 or 7 days by exsanguination via cardiac puncture under isoflurane anesthesia. Blood was collected into serum separator tubes or into tubes containing buffered sodium citrate for plasma as described herein. For studies involving in vivo editing, liver tissue was collected from each animal for DNA extraction and analysis.
Cohorts of mice were measured for liver editing by Next-Generation Sequencing (NGS).
In brief, to quantitatively determine the efficiency of editing at the target location in the genome, genomic DNA was isolated and deep sequencing was utilized to identify the presence of insertions and deletions introduced by gene editing.
PCR primers were designed around the target site (e.g., B2M), and the genomic area of interest was amplified. Additional PCR was performed according to the manufacturer's protocols (Illumina) to add the necessary chemistry for sequencing. The amplicons were sequenced on an Illumina MiSeq instrument. The reads were aligned to the […] after eliminating those having low quality scores. The resulting files containing the reads were mapped to the reference genome (BAM files), where reads that overlapped the target region of interest were selected and the number of wild type reads versus the number of reads which contain an insertion, substitution, or deletion was calculated.
The editing percentage (e.g., the “editing efficiency” or “percent editing”) is defined as the total number of sequence reads with insertions or deletions over the total number of sequence reads, including wild type.
CD-1 female mice were dosed i.v. at 0.1 mpk or 0.3 mpk. […] For animals dosed with G282 targeting TTR, blood and the liver were collected and serum TTR and editing were measured. For animals dosed with G650 targeting B2M, liver was collected and editing was measured.

[5] = Table 12, Example 56: LNP, G282 (TTR), ratio 6.0
[6] = Table 16, Example 59: LNP, G282 (TTR) 1:1 w/w, N:P 6.0
[7] = Table 20, Example 61: LNP, G282 (TTR) 1:1 w/w, N:P 6.0
[8] = Example 56: 0.1 mpk i.v., 7 days post-dose, G282
[9] = Example 59: 0.1 mpk i.v., 7 days post-dose, G282 1:1
[10] = Example 61: 0.1 mpk i.v., 7 days post-dose, G282 1:1
[11] = Mus musculus, iv, 168 h, Example 59: 0.1 mpk i.v., 7 days post-dose, G282 1:1
[12] = Mus musculus, iv, 168 h, Example 61: 0.1 mpk i.v., 7 days post-dose, G282 1:1
[13] = Table 14, Example 58: LNP, G282 (TTR) 1:1 w/w, N:P 6.0
[14] = Table 22, Example 62: LNP, G282 (TTR), sgRNA:Cas9 mRNA 1:2 w/w, N:P 6.0
[15] = Example 62: 0.03 mpk i.v., 7 days post-dose, G282 1:2
[16] = Example 62: 0.1 mpk i.v., 7 days post-dose, G282 1:2
[17] = Mus musculus, iv, 144 h, Example 58: 0.1 mpk i.v., 6 days post-dose, G282 1:1
[18] = Mus musculus, iv, 168 h, Example 62: 0.03 mpk i.v., 7 days post-dose, G282 1:2
[19] = Mus musculus, iv, 168 h, Example 62: 0.1 mpk i.v., 7 days post-dose, G282 1:2
[20] = Table 24, Example 63: LNP, G282 (TTR) 1:1 w/w, NP 6.0
[21] = Example 55: 0.1 mpk i.v., 7 days post-dose, G282 1:1
[22] = Example 63: 0.03 mpk i.v., 7 days post-dose, G282 1:1
[23] = Example 63: 0.1 mpk i.v., 7 days post-dose, G282 1:1
[24] = Mus musculus, iv, 168 h, Example 63: 0.03 mpk i.v., 7 days post-dose, G282 1:1
[25] = Mus musculus, iv, 168 h, Example 63: 0.1 mpk i.v., 7 days post-dose, G282 1:1

Encapsulation (%) [1, 5]: 81% | Encapsulation (%) [1, 6]: 98% | Encapsulation (%) [1, 7]: 90% | pKa [3]: 6.6
SMILES: CCCCCCCCCOC(=O)CCCCCCCN(CCO)CCCCCCCC(=O)OC(CCCCCCCC)CCCCCCCC [Compound 18, heptadecan-9-yl 8-((2-hydroxyethyl)(8-(nonyloxy)-8-oxooctyl)amino)octanoate, reference compound]
Serum TTR [2, 8]: 415 µg/mL | Serum TTR (% TSS) [2, 8]: 52 % TSS | Serum TTR [2, 9]: 324 µg/mL | Serum TTR [2, 10]: 615 µg/mL | response vs control in vivo at 0.1 mg/kg [2, 11]: 35% | response vs control in vivo at 0.1 mg/kg [2, 12]: 48%

Encapsulation (%) [1, 13]: 91% | Encapsulation (%) [1, 14]: 94% | pKa [3]: 6.21
SMILES: CCCCCCCCOC(CCCCCCCN(CCO)CCCCCCCC(=O)OC(CC)CCCCCCCC)OCCCCCCCC (centres unmarked) [Compound 17, undecan-3-yl 8-((8,8-bis(octyloxy)octyl)(2-hydroxyethyl)amino)octanoate]
Serum TTR ([2]; Example 58: 0.1 mpk i.v., 6 days post-dose, G282 1:1): 479 µg/mL | Serum TTR [2, 15]: 495 µg/mL | Serum TTR [2, 16]: 304 µg/mL | response vs control in vivo at 0.1 mg/kg [2, 17]: 48% | response vs control in vivo at 0.03 mg/kg [2, 18]: 78% | response vs control in vivo at 0.1 mg/kg [2, 19]: 48%

SMILES: CCCCC/C=C\C/C=C\CCCCCCCC(=O)OCC(COC(=O)CCC(OCCCCCCCC)OCCCCCCCC)COC(=O)OCCCN(CC)CC (centres unmarked) [Compound 19, 3-((4,4-bis(octyloxy)butanoyl)oxy)-2-(((((3-(diethylamino)propoxy))-carbonyl)oxy)methyl)propyl (9Z,12Z)-octadeca-9,12-dienoate, reference compound]
Editing (%) of B2M in mouse liver ([4]; Example 52: LNP single dose 0.1 mg/kg i.v., CD-1 female mice, sgRNA G650:Cas9 mRNA 1:1, NGS): 12.0% | Editing (%) B2M liver ([4]; Example 53: 0.1 mpk i.v., CD-1 female mice): 25.5% | Editing (%) B2M liver ([4]; Example 53: 0.3 mpk i.v., CD-1 female mice): 43.4% | dose response of B2M editing in liver ([4]; Example 53 text: 0.1 mpk vs 0.3 mpk): increased editing of B2M in liver significantly between the 0.1 mpk and 0.3 mpk doses | % Editing B2M in mouse liver ([4]; Example 54: 0.1 mpk i.v., CD-1 female mice): 13% | % Editing B2M in mouse liver ([4]; Example 54: 0.3 mpk i.v., CD-1 female mice): 44% | dose response of B2M editing in liver ([4]; Example 54 text: 0.1 mpk vs 0.3 mpk, 7 days): increased editing at the 0.3 mpk dose compared to the 0.1 mpk dose | Encapsulation (%) ([1]; Table 3, Example 52: LNP, Cas9 mRNA + sgRNA (G650) 1:1 w/w, N:P 6.0, Compound 19 50/9/38/3, others 50/10/38.5/1.5): 98% | Encapsulation (%) ([1]; Table 5, Example 53: LNP with gRNA G282 (TTR), 1:1 w/w, N:P 6.0): 99% | Encapsulation (%) ([1]; Table 5, Example 53: LNP with gRNA G650 (B2M), 1:1 w/w, N:P 6.0): 98% | Encapsulation (%) ([1]; Table 8, Example 54: LNP, G650 (B2M) 1:1 w/w, N:P 6.0): 98% | Encapsulation (%) ([1]; Table 10, Example 55: LNP, G282 (TTR) 1:1 w/w, N:P 6.0): 98% | Encapsulation (%) [1, 5]: 97% | Encapsulation (%) [1, 13]: 99% | Encapsulation (%) [1, 6]: 98% | Encapsulation (%) ([1]; Table 18, Example 60: LNP, G502 (TTR), sgRNA:Cas9 mRNA 1:2 w/w, N:P 6.0): 99% | Encapsulation (%) [1, 7]: 98% | Encapsulation (%) [1, 14]: 99% | Encapsulation (%) [1, 20]: 98% | Encapsulation (%) ([1]; Table 26, Example 64: LNP, G282 (TTR) 1:1 w/w, N:P 6.0): 98% | TSS (serum TTR % TSS) ([2]; Example 53: 0.1 mpk i.v., 6 days post-dose, G282 1:1): 85 % TSS | Serum TTR ([2]; Example 53: 0.1 mpk i.v., CD-1 female mice, 6 days post-dose, G282 1:1): 55 µg/mL | TSS (serum TTR % TSS) ([2]; Example 53: 0.3 mpk i.v., 6 days post-dose, G282 1:1): 3 % TSS | Serum TTR ([2]; Example 53: 0.3 mpk i.v., CD-1 female mice, 6 days post-dose, G282 1:1): 55 µg/mL | Serum TTR [2, 21]: 528 µg/mL | Serum TTR (% TSS) [2, 21]: 46 % TSS | Serum TTR [2, 8]: 865 µg/mL | Serum TTR (% TSS) [2, 8]: 108 % TSS | Serum TTR [2, 9]: 438 µg/mL | Serum TTR ([2]; Example 60: 0.1 mpk i.v., 6 days post-dose, G502 1:2): 517 µg/mL | Serum TTR [2, 10]: 438 µg/mL | Serum TTR [2, 15]: 560 µg/mL | Serum TTR [2, 16]: 414 µg/mL | Serum TTR [2, 22]: 593.01 µg/mL | Serum TTR [2, 23]: 134.54 µg/mL | Serum TTR ([2]; Example 64: Dose 0.03 mpk (table) i.v., 7 days post-dose, G282 1:1): 622.0 µg/mL | response vs control in vivo at 0.1 mg/kg [2, 17]: 59% | response vs control in vivo at 0.1 mg/kg ([2]; Mus musculus, iv, 144 h, Example 60: 0.1 mpk i.v., 6 days post-dose, G502 1:2): 36% | response vs control in vivo at 0.1 mg/kg [2, 11]: 47% | response vs control in vivo at 0.1 mg/kg [2, 12]: 34% | response vs control in vivo at 0.03 mg/kg [2, 18]: 88% | response vs control in vivo at 0.1 mg/kg [2, 19]: 65% | response vs control in vivo at 0.03 mg/kg [2, 24]: 73.5% | response vs control in vivo at 0.1 mg/kg [2, 25]: 16.7% | inhibition in vivo at 0.03 mg/kg ([2]; Mus musculus, iv, 168 h, Example 64: Dose 0.03 mpk (table) i.v., 7 days post-dose, G282 1:1, read-out: Serum TTR (% KD)): -8.6% | pKa [3]: 6.4

Encapsulation (%) [1, 20]: 97% | pKa [3]: 6.41
SMILES: CCCCCCCCOC(CCCCCCCN(CCO)CCCCCCCC(=O)OC(CC)CCCCCC)OCCCCCCCC (centres unmarked) [Compound 28, nonan-3-yl 8-((8,8-bis(octyloxy)octyl)(2-hydroxyethyl)amino)octanoate]
Serum TTR [2, 22]: 493.60 µg/mL | Serum TTR [2, 23]: 321.26 µg/mL | response vs control in vivo at 0.03 mg/kg [2, 24]: 61.2% | response vs control in vivo at 0.1 mg/kg [2, 25]: 39.8%

Source: patent US20260225997A1, “IONIZABLE AMINE LIPIDS” (Intellia Therapeutics, Inc., priority 2018, published 2026)
